Common to all, as to assay: growth of human tumour cells (NCI), 48 h
The test system of test [1] is 786-0 renal.
For test [2], the system named is ACHN renal.
The test system of test [3] is BT-549 breast.
Test [4] concerns COLO 205 colon.
Test [5] deals with MALME-3M melanoma.
Test [6] has as its system MDA-MB-435.
The test system of test [7] is OVCAR-5 ovarian.
The subject of test [8] is PC-3 prostate.
For test [9], the system named is SNB-75 CNS.
For test [10], the system named is SW-620 colon.

Values joined by “and” are separate entries in the source; they are usually repeats but may differ in a detail not shown here. Equal entries are not always repeated.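 Where inhibition never reached the appropriate level, the endpoint shown equals the highest concentration tested. Otherwise, values were interpolated linearly from a five-concentration, 48-hour dose response in 96-well plates. The concentration for 50% growth inhibition is given as GI50. TGI: concentration producing complete growth inhibition.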

With `CCCCC#Cc1c(I)n(C)c(=O)[nH]c1=O`, the GI50 was 16.5 µM in test [1]; 1.71 µM in [2]; 1.94 µM in test [3]; 1.93 µM in test [4]; 1.94 µM in [5]; 1.64 µM in test [6]. The GI50 in test [7] was 6.38 µM; in [8] it was 12.8 µM; in test [9], 12.3 µM; in test [10] it was 1.66 µM. In addition, the TGI in test [1] was found to be 30.1 µM; in [2], 3.08 µM; in [3], 4.55 µM; in [4], 3.58 µM; in [5], 3.55 µM; in test [6], 3.88 µM. The TGI in test [7] amounted to 19.2 µM; in test [8] it was 25.4 µM; in test [9] it was 24.7 µM; in [10] it was 3.05 µM.
In the case of `COC(=O)c1c(-c2cccs2)oc(-c2cccs2)c1C(=O)OC`, the GI50 in test [1] was 18 µM; in test [2] it was more than 70.2 µM; in test [3], 52 µM; in test [4], 26.7 µM; in test [5], 25 µM; in test [6], 26 µM. Further, the GI50 is more than 95 µM in test [7], 26.3 µM in test [8], more than 73.6 µM in [9] and 31 µM in [10]. Also, the TGI in test [1] was 49.8 µM; in [2], more than 100 µM; in [3] it was more than 100 µM; in test [4], more than 86.3 µM; in test [5] it was 64 µM; in [6], 87 µM. Further, the TGI in test [7], in [8], in [9] and in test [10] was more than 100 µM throughout.
In the case of `CS(=O)(=O)OCCCNCCCOS(C)(=O)=O`, the TGI turned out to be 6310 µM in [1]; 3580 µM in test [2]; 4500 µM in test [3]; 4540 µM in test [4]; 4890 µM in test [5]; 8690 µM in test [6]. The TGI stood at 6290 µM in test [7], 5620 µM in test [8], 6940 µM in test [9] and 6720 µM in test [10].
With `CN(C)CCCn1c(=O)c2ccccc2c2cnc3[nH]ccc3c21`, the GI50 in test [1] was 0.85 µM; in [2], 0.564 µM; in [3], 2.95 µM; in [4], 0.686 µM; in test [5], 1.69 µM; in test [6], 1.76 µM. Also, the GI50 in test [7] is 2.27 µM; in test [8], 1.69 µM; in test [9], 1.17 µM; in test [10], 0.529 µM. The TGI in test [1] was 10.9 µM; in test [2] it was 7.08 µM; in test [3] it was 9.58 µM; in test [4], 3.54 µM; in test [5] it was 4.55 µM; in [6] it was 6.66 µM. In addition, the TGI in [7] is 14.9 µM; in test [8], 11.1 µM; in test [9] it was 3.6 µM; in [10], 3.66 µM.
`CS(=O)(=O)c1ccc(Nc2nc(N[C@H]3CCCC[C@H]3N)nc3cc[nH]c(=O)c23)cc1`: the GI50 in test [1] was 3.28 µM; in test [2] it was 5.24 µM; in test [3], 1.63 µM; in test [4], 0.865 µM; in [5], 1.73 µM; in test [6], 1.3 µM. Also, the GI50 in test [7] was 2.52 µM; in test [8], 2.46 µM; in [9] it was 1.29 µM; in [10], 0.627 µM. The TGI came out at 20.6 µM in test [1]; 90.1 µM in [2]; 5.51 µM in test [3]; 2.35 µM in test [4]; 4.64 µM in test [5]; 3.7 µM in [6]. For the same molecule, the TGI in test [7] is more than 100 µM; in test [8], more than 100 µM; in test [9], 3.51 µM; in [10] it was 8.6 µM.
Turning to `COc1ccc(-c2cc3c(C)nc(N)nc3n(C3CCC(OCCO)CC3)c2=O)cn1` (stereo not given), the GI50 in test [1] is 0.0694 µM and 0.0605 µM; in [2] it was 0.0971 µM and 0.0973 µM; in test [3] it was 0.0622 µM and 0.0317 µM; in test [4] it was 0.0882 µM and 0.137 µM; in test [5] it was 0.035 µM and 0.0195 µM; in test [6], 0.0985 µM and 0.0842 µM. For the same molecule, the GI50 in test [7] is 0.0734 µM and 0.0489 µM; in test [8] it was 0.0687 µM and 0.0222 µM; in [9] it was 0.0151 µM and < 0.0117 µM; in test [10] it was 0.181 µM and 0.162 µM. In addition, the TGI was 0.614 µM and 0.442 µM in [1]; more than 6.33 µM in test [2]; 0.666 µM and 0.359 µM in test [3]; 0.874 µM and 1.14 µM in [4]; 0.263 µM and 0.134 µM in [5]; 0.941 µM and 0.564 µM in test [6]. Besides, the TGI in test [7] is 1.95 µM and 1.02 µM; in test [8] it was > 2.73 µM and 0.299 µM; in test [9] it was 0.137 µM and 0.177 µM; in test [10], more than 10 µM.

The values above are taken from PubChem BioAssay (NCI).
